In PMC12366525, “Characterization of allosteric modulators that disrupt androgen receptor co-activator protein-protein interactions to alter transactivation–Drug leads for metastatic castration resistant prostate cancer” (SLAS discovery : advancing life sciences R & D, 2023):
pIC50: −log10 of the molar value. Like-named read-outs stand apart in the source and are kept apart here.

Columns and labels:
DU-145 cells = test: Prostate cancer cell line growth inhibition assay, DU-145; assay type: cell-based; details: read-out: DU145 GI50 (AR−)
Experimental: The PC-3, DU-145, LNCaP, C4–2, and 22Rv1 PC cell line growth inhibition assays have been described previously. On day 1, each PC cell line was harvested, counted, and seeded into two 384-well assay plates, a time zero (T0) and a time 72 h (T72) plate. PC cell lines were all seeded at 1000 cells per well in 45 μL of tissue culture media in uncoated white clear bottom 384-well assay plates (VWR, # 82050–076) using a Matrix electronic multichannel pipette (Thermo Fisher Scientific, Waltham, MA) and cultured overnight at 37 °C, 5% CO2, and 95% humidity. On day 2, 25 μL of the Cell Titer Glo (CTG) (Promega Corporation, Madison, WI) detection reagent was dispensed into the wells of the T0 assay plate using a Matrix electronic multichannel pipette, and the RLUs were captured on the SpectraMax M5e (Molecular Devices LLC, Sunnyvale, CA) microtiter plate reader. Also on day 2, 5 μL of compounds were transferred into the test wells of the T72 384-well assay plates which were returned to the incubator for 72 h. Control wells received DMSO alone. On day 5, 25 μL of the CTG detection reagent was dispensed into the wells of the T72 assay plate using a Matrix electronic multichannel pipette, and the RLU’s were captured on the SpectraMax M5e microtiter plate reader platform.
In 384-well assays, DMSO minimum (n = 32) and maximum (n = 32) plate control wells were utilized to calculate signal-to-background ratios (S:B) and Z’-factor coefficient assay performance quality control statistics, and to normalize the signals of compound treated wells and to represent 0% and 100% respectively. For the 96-well AR-LBD H^3-DHT radioligand binding assay, eight minimum and maximum plate control wells were utilized to normalize the data. For the PC cell line growth inhibition assays we used the DMSO control data from the T0 and T72 assay plates to assess the dynamic range of the T0 to T72 cell growth, and to calculate S:B ratios and Z’-factor coefficient statistics for the assay signal window (T0 to T72). To normalize the 72 h compound exposure PC growth inhibition data, the signals from the compound treated wells were processed and expressed as% of the T72 DMSO plate controls. IC50 and GI50 values for each of the bioassays were calculated using Graph-Pad Prism 9 software to plot and fit data to curves using the Sigmoidal dose response variable slope equation Y = Bottom + [Top-Bottom]/ [1 + 10^^(LogEC50-X)*HillSlope].

AR-LBD and SRC1 = molecular target: T1, AR-LBD and SRC1 (Homo sapiens, UniProt P10275); test: SRC1 mammalian 2-hybrid (M2H) assay; assay type: cell-based; details: HEK 293 cells; 25 nM DHT; 27 h compound exposure; read-out: M2H AR-SRC1 CoA Recruitment IC50
T1 construct: AR-LBD amino acids 658–919 expressed as a fusion protein with Gal4-DBD; expressed in transfected cells; host or cells: HEK 293
T1 sequence (P10275 658-919): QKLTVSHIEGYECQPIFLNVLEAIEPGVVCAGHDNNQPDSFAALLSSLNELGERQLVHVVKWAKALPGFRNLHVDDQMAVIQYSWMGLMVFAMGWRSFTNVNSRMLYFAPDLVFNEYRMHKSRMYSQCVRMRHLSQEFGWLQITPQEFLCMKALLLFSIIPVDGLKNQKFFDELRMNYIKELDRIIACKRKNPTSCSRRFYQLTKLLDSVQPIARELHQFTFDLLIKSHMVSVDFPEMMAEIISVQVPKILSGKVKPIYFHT
Source text: The 5xGAL4-TATA-luciferase reporter plasmid was a gift from Dr. Richard Maurer from the Oregon Health and Science University, and constructs pGAL4-hAR-658–919 (AR-LBD amino acids 658–919 expressed as a fusion protein with Gal4-DBD), pVP16-SRC1 (full--length SRC1 expressed as a fusion with VP16 activation domain) and pVP16-Empty vector were kindly provided to us by Dr. Elizabeth Wilson, from UNC Chapel Hill. pVP16-TIF2 was generated as described previously. HEK 293 cells were transiently co-transfected with 5 ng of pGal4-AR-LBD, 10 ng of either pVP16-TIF2 or pVP16-SRC1, and 20 ng of the 5xGal4-TATA-Luc reporter as described previously. HEK 293 cells were bulk co-transfected with the three plasmids that had been individually incubated with Fugene 6 at a 3:1 ratio for 25 min at room temperature (RT) in serum free media (SFM) and then combined with HEK 293 cells that were suspended in DMEM (Cellgro10013CV) with 2 mM L-glutamine (Invitrogen) that was supplemented with 10% fetal bovine serum, and 5000 cells in a volume of 40 μL were seeded into the wells of white opaque 384-well assay plates (Greiner Bio-one, #781080) and cultured overnight at 37 °C, 5% CO2, and 95% humidity. […] 25 μL of BrightGlo® reagent was added to the plate and the relative luminescence units (RLUs) were captured on a SpectraMax M5e microtiter plate reader (Molecular Devices, LLC, San Jose, CA).

For `Cc1ccccc1-c1cc(O)c2c(c1)CN(c1nc(C(N)=O)cs1)CCO2` [S1–1], the GI50 (DU-145 cells; Homo sapiens, DU-145, 72 h) was > 100 µM and the pIC50 (AR-LBD and SRC1) was 5.45.
For `Cc1ccccc1-c1cc(O)c2c(c1)CN(c1nccs1)CCO2` [S1–3], the GI50 (DU-145 cells; 72 h) was > 100 µM and the pIC50 (AR-LBD and SRC1) was 5.28.
For `Cc1nsc(NC(=O)N2CCC(Sc3ccccc3C)CC2)n1` [S2–6], the GI50 (DU-145 cells; Homo sapiens, DU-145, 72 h) was > 100 µM and the pIC50 (AR-LBD and SRC1) was 6.34.
In the case of `Cc1c(-c2ccccc2F)[nH]c2ccc(CNC(=O)CCc3cn[nH]c3)cc12` [S3–11], the GI50 (DU-145 cells; Homo sapiens, DU-145, 72 h) was 18 µM and the pIC50 (AR-LBD and SRC1) was 5.32.
Compound `Cc1c(-c2ccccc2F)[nH]c2ccc(CNC(=O)CCc3cnccn3)cc12` [S3–12] has a GI50 (DU-145 cells; Homo sapiens, DU-145, 72 h) of 6.82 µM and a pIC50 (AR-LBD and SRC1) of 5.41.
`CC(=O)NCCC(=O)NCc1ccc2[nH]c(-c3ccccc3F)c(C)c2c1` [S3–13] was tested, and the GI50 (DU-145 cells; Homo sapiens, DU-145, 72 h) was > 100 µM and the pIC50 (AR-LBD and SRC1) was 4.93.
For `Cc1c(-c2ccccc2F)[nH]c2ccc(CNC(=O)c3ccc(CO)o3)cc12` [S3–14], the GI50 (DU-145 cells; Homo sapiens, DU-145, 72 h) was > 100 µM and the pIC50 (AR-LBD and SRC1) was 5.60.
`Cc1c(-c2ccc(F)cc2)[nH]c2ccc(CNC(=O)c3ccc(CO)o3)cc12` [S3–15] showed a GI50 (DU-145 cells; Homo sapiens, DU-145, 72 h) of 24.3 µM and a pIC50 (AR-LBD and SRC1) of 5.52.
